Results taken from article PMC5080985 (Journal of medicinal chemistry, 2015).

Columns and labels:
AmpC β-lactamase = AmpC β-lactamase (Escherichia coli, UniProt P00811); experiment: Controls for colloidal aggregation; details: AmpC β-lactamase counterscreen, particle formation by DLS
KDM4C [1] = target: T1, KDM4C (Homo sapiens, UniProt Q9H3R0); experiment: Thermal shift assay; assay type: binding
T1 sequence (Q9H3R0 1-1056): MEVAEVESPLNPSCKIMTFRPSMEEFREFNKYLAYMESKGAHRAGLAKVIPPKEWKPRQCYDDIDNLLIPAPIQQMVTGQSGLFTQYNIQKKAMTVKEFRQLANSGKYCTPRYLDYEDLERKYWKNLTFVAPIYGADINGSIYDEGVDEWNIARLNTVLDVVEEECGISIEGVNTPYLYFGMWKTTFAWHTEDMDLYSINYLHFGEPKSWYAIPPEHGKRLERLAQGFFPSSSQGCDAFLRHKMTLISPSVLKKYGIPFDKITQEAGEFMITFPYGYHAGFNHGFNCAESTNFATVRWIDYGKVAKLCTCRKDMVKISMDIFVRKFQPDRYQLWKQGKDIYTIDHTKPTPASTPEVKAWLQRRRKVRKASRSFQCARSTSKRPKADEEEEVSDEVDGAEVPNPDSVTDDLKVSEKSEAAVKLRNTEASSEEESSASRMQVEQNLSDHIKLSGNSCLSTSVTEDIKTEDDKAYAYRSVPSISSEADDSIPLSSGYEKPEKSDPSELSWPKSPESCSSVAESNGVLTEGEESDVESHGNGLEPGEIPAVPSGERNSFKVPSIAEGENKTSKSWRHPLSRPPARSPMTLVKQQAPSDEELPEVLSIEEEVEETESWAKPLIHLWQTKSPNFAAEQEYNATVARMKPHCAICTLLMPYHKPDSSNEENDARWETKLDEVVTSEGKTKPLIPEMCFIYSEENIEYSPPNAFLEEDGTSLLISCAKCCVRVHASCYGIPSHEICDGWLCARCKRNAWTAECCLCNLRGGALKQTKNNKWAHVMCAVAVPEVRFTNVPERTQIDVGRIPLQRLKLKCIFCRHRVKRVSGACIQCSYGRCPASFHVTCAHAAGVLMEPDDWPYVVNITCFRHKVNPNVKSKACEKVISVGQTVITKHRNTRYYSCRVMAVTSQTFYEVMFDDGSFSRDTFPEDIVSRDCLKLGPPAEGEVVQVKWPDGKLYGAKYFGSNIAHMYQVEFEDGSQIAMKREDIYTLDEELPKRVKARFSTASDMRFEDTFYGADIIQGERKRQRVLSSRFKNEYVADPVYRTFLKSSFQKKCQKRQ

KDM4C [2] = target: T1, KDM4C; experiment: MALDI assay, KDM4C; assay type: biochemical
FIH = FIH (Homo sapiens, UniProt Q9NWT6); experiment: MALDI counterscreen, FIH; assay type: biochemical
KDM5B (JARID1B, PLU-1) = KDM5B (JARID1B, PLU-1) (Homo sapiens, UniProt Q9UGL1); experiment: AlphaScreen counterscreen, KDM5B; assay type: biochemical
KDM4C [3] = target: T2, KDM4C (Homo sapiens, UniProt Q9H3R0); experiment: KDM4C time-resolved FRET; assay type: biochemical
T2 sequence (Q9H3R0 1-352): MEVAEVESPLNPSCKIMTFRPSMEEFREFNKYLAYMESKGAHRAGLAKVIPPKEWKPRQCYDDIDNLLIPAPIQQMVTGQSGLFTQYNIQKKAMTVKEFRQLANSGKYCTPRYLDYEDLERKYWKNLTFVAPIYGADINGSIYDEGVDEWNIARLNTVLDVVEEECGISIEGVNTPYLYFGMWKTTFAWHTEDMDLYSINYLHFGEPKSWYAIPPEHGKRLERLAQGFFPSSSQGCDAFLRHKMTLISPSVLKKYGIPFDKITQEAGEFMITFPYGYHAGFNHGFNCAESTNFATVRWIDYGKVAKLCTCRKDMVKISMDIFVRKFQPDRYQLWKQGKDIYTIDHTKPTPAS

KDM2A (FBXL11) = target: T3, KDM2A (FBXL11) (Homo sapiens, UniProt Q9Y2K7); experiment: AlphaScreen counterscreen, KDM2A; assay type: biochemical
T3 sequence (Q9Y2K7 1-1162): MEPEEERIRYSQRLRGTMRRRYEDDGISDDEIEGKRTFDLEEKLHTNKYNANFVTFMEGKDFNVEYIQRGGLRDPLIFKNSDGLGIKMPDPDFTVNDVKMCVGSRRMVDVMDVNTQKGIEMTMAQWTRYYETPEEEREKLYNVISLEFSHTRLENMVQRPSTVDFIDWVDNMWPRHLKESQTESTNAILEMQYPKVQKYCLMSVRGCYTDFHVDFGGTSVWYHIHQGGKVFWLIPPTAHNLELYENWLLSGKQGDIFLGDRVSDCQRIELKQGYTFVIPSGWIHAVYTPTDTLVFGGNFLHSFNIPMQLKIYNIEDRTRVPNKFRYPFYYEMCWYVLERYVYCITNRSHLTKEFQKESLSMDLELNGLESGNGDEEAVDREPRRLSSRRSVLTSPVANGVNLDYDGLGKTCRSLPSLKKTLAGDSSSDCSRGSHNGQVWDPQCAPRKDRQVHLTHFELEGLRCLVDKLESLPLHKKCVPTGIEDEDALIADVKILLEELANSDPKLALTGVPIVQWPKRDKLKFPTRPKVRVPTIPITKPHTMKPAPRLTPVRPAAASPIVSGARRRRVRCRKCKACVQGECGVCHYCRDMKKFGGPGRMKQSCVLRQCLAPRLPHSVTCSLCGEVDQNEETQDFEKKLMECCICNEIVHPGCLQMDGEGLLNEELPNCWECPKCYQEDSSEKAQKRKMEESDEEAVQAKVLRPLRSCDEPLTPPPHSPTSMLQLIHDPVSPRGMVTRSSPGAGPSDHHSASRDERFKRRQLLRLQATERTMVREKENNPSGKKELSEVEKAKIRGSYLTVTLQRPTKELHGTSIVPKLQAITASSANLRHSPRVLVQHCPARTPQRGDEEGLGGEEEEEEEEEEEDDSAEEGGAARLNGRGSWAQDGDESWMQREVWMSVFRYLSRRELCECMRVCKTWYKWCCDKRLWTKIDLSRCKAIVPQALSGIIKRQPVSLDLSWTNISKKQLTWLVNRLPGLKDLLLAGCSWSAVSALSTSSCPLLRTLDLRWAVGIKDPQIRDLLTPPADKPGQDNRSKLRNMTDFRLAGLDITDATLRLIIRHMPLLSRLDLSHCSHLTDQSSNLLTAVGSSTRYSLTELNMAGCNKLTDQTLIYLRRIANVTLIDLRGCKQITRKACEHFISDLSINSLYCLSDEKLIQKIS

KDM6B (JMJD3) = KDM6B (JMJD3) (Homo sapiens, UniProt O15054); experiment: AlphaScreen counterscreen, KDM6B; assay type: biochemical
Chain of KDM6B (JMJD3) (O15054 whole entry, species assumed): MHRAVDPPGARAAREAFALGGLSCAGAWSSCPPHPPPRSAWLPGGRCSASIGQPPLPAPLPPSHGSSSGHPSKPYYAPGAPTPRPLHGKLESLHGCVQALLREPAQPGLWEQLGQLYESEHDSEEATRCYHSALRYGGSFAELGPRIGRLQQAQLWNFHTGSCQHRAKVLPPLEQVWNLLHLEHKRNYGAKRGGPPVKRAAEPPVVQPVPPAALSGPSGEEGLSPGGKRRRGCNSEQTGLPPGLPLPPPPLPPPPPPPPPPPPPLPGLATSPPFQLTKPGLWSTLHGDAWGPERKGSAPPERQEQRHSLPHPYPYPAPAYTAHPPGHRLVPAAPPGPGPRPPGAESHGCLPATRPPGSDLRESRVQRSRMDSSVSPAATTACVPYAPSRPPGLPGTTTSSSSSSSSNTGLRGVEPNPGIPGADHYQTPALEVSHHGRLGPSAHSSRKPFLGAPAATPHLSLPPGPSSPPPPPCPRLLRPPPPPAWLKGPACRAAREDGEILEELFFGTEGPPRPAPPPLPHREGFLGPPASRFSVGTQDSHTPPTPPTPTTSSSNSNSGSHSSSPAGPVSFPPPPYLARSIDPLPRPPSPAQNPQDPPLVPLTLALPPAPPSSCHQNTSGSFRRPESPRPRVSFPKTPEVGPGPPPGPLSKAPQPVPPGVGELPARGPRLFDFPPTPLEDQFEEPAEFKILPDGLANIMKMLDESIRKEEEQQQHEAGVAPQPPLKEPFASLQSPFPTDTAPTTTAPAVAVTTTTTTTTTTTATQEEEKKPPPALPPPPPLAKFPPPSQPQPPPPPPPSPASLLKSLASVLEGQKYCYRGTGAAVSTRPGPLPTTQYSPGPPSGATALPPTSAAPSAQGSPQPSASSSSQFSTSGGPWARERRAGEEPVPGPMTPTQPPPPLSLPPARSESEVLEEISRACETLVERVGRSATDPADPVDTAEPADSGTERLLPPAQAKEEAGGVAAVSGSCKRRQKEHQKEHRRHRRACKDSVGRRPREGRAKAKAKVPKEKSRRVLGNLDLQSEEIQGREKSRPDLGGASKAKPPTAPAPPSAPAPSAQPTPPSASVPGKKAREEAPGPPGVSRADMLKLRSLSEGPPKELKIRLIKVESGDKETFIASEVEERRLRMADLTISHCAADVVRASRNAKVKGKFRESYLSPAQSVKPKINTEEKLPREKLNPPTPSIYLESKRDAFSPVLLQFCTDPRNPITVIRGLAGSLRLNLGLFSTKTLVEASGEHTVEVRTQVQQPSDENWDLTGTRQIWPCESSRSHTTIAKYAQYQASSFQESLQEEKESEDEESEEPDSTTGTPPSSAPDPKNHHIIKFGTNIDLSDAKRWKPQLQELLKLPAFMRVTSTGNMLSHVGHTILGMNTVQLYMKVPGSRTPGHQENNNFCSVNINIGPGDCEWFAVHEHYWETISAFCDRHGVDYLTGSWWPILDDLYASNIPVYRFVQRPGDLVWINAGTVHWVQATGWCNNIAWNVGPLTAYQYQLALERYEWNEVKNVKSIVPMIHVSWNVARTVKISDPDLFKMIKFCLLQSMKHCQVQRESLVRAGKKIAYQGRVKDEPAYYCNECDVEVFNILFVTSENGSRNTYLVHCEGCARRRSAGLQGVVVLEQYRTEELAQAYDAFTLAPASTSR

Chain of AmpC β-lactamase (P00811 20-377): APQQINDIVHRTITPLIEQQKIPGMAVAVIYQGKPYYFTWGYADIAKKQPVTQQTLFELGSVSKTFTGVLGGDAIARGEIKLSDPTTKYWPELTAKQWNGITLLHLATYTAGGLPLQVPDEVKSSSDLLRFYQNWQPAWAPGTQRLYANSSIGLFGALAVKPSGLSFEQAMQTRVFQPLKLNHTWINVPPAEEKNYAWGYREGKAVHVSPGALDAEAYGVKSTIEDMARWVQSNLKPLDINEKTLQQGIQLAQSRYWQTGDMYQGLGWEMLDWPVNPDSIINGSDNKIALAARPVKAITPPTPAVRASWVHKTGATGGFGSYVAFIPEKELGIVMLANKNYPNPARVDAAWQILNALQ
Chain of FIH (Q9NWT6 whole entry): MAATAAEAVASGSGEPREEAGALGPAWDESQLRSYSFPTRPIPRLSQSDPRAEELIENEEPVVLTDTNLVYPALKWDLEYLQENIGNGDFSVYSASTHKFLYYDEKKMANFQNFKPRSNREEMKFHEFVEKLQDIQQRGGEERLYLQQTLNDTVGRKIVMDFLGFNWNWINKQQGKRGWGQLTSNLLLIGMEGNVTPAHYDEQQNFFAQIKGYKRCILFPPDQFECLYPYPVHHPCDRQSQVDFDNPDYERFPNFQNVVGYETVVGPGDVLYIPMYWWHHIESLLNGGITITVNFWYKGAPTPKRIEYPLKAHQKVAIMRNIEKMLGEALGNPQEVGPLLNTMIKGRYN
Chain of KDM5B (JARID1B, PLU-1) (Q9UGL1 whole entry, species assumed): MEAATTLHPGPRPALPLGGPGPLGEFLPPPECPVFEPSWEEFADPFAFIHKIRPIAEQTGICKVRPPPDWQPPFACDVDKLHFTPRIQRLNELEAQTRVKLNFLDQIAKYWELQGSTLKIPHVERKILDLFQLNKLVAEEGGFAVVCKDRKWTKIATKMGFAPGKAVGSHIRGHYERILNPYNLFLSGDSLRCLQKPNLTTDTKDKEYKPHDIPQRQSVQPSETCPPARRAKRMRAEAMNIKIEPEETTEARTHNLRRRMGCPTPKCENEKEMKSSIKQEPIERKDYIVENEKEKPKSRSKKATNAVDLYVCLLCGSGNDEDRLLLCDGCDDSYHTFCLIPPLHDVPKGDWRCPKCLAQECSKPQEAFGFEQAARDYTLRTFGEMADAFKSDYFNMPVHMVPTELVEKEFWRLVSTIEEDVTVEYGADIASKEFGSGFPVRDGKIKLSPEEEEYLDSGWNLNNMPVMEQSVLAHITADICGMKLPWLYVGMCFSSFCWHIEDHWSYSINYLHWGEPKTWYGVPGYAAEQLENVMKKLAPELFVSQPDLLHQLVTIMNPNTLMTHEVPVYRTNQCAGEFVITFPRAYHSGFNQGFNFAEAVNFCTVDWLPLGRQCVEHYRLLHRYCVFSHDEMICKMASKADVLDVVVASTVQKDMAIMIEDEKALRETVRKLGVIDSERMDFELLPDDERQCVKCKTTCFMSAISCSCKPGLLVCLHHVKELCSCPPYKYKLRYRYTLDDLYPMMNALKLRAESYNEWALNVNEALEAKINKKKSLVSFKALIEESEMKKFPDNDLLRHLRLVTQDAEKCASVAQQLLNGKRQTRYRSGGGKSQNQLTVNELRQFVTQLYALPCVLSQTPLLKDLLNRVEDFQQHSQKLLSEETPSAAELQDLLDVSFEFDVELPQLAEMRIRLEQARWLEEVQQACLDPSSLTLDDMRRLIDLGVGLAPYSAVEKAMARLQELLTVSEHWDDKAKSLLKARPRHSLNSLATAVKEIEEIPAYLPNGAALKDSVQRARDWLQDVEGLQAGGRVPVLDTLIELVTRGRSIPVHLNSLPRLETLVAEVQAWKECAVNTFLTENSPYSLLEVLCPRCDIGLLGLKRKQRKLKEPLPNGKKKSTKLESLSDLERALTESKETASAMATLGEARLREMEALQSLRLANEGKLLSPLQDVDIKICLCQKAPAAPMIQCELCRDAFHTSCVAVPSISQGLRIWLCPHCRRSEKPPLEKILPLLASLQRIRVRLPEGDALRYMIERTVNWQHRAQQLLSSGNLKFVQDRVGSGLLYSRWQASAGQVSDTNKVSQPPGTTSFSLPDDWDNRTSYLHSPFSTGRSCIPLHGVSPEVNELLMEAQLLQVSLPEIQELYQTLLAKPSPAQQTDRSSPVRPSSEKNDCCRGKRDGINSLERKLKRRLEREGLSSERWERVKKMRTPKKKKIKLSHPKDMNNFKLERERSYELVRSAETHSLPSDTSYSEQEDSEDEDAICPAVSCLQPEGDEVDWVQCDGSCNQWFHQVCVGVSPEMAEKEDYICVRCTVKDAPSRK

Cn1nccc1CNc1ccc(O)c(C(=O)O)c1 [Compound 4]
nonspecific inhibition / colloidal aggregation (AmpC β-lactamase): neither of the two inhibitors acted as aggregators in a relevant concentration range

COCC(=O)Nc1ccc(O)c(C(=O)O)c1 [Compound 5]
nonspecific inhibition / colloidal aggregation (AmpC β-lactamase): neither of the two inhibitors acted as aggregators in a relevant concentration range

Cc1ccccc1CNc1ccc(O)c(C(=O)O)c1 [Compound 20]
nonspecific inhibition / colloidal aggregation (AmpC β-lactamase): did not exhibit nonspecific inhibition
stabilization of the enzyme in thermal shift assays (KDM4C [1]): stabilized the enzyme in thermal shift assays

Nc1ccc(O)c(-c2cc(C(=O)O)ccn2)c1 [Compound 30, 2-(5-Amino-2-hydroxyphenyl)-isonicotinic Acid]
IC50 (KDM4C [2]): 135 µM
IC50 (FIH): 828 µM
fold selectivity over KDM4C, FIH (FIH; MALDI, 100 μM α-KG): 6 fold

O=C(O)c1ccnc(-c2cc(NC(=O)c3ccc(O)cc3)ccc2O)c1 [Compound 35]
fold selectivity over KDM4C, KDM5B (KDM5B (JARID1B, PLU-1)): Ml
fold selectivity over KDM4C, FIH (FIH; MALDI, 100 μM α-KG): > 85 fold

COc1cccc(CC(=O)Nc2ccc(O)c(-c3cc(C(=O)O)ccn3)c2)c1 [Compound 40]
fold selectivity over KDM4C, FIH (FIH; MALDI, 100 μM α-KG): > 68 fold

COCC(=O)Nc1ccc(O)c(-c2cc(C(=O)O)ccn2)c1 [Compound 42]
fold selectivity over KDM4C, FIH (FIH; MALDI, 100 μM α-KG): > 11 fold
fold improvement in potency over the parent 5-aminosalicylate fragment (KDM4C [3]; TR-FRET IC50 at 2 μM α-KG, 42 vs 5, 21 vs 4): ~700 fold

CC(=O)Nc1ccc(O)c(-c2cc(C(=O)O)ccn2)c1 [Compound 44]
fold selectivity over KDM4C, KDM2A (KDM2A (FBXL11)): > 6 fold
fold selectivity over KDM4C, FIH (FIH; MALDI, 100 μM α-KG): > 8 fold
IC50 FIH, MALDI Assays (FIH; MALDI, 100 μM α-KG, >500 = no inhibition at 500 μM inhibitor): no inhibition
fold selectivity over KDM4C, KDM6B (KDM6B (JMJD3)): > 6 fold

CC(=O)Nc1ccc(O)c(C(=O)O)c1 [N-acetyl-5-aminosalicylic acid]
IC50(μM) 2μM αKG (KDM4C [3]; KDM4C, TR-FRET, 2 μM α-KG): no inhibition
